Values after ≈ are worked out from the molar mass of the structure shown. Values joined by “and” are separate entries in the source; they are usually repeats but may differ in a detail not shown here. Equal values may be shown once. Read-outs that look alike come from different tables or passages of the source.
Tests used:
E. coli CFT073 pEMP = assay: Bactericidal activity (survival by CFU counts), CFT073 pEMP; type: cell-based; settings: 78 nM, CFU counts over time
Description: Finally, the ability of prodrug 35 to kill bacteria rather than arrest growth was evaluated. […]
determined as the lowest concentration of antibiotic that inhibited visible bacterial growth.
OD595 measurements were recorded on a BioRad 1Mark Microplate Reader. Measurements were background corrected against the no-inoculum control and normalized to the no-drug […]
Determination of bactericidal activity
Stationary-phase bacteria were inoculated into 3 ml MHB containing no antibiotic, […]
subsequently incubated at 37 °C with shaking (180 r.p.m.) and bacterial viability determined […]
been shown previously to be bactericidal.
Recombinant β-lactamase assay
Each compound was incubated for 1 hour at room temperature in 100 mM NaPO4 (pH 7) ± 0.5 M NaOH. The wavelength at which the difference between un-hydrolysed and hydrolysed compound was the greatest was selected (typically 263 nm) and a compound concentration vs. absorbance standard curve was generated. Compounds, typically 250 μM in assay buffer (100 mM NaPO4 (pH 7)), were dispensed into a Corning 96-well UV transparent flat bottom plate. Recombinant Amp-C in assay buffer was added immediately before incubatio n in the microplate reader at 37 °C. UV absorbance was measured every 20 s for 1 h on a BMG LABTECH SPECTROstarNano. Kinetic parameters were determined by half -life analysis.
NMR β-lactamase hydrolysis assay […]

CFT073 pNDM (NDM-1) = assay: microbe, parasite or virus in culture; type: cell-based, E. coli; settings: Escherichia coli, read-out: MIC value pNDM
CFT073 + pSU18 (pEMP) = assay: microbe, parasite or virus in culture; type: cell-based, E. coli
[1] = system: Ec13 (CTX-M-15, ciprofloxacin resistant); assay: microbe, parasite or virus in culture; type: cell-based, E. coli
recombinant DNA gyrase = biological target: T1, recombinant DNA gyrase (Escherichia coli, UniProt P0AES4+P0AES6); assay: Recombinant DNA gyrase supercoiling assay ± CTX-M-15; type: biochemical, E. coli
T1 construct: purchased Inspiralis

[2] = system: Ec11 (CTX-M-15, ciprofloxacin sensitive); assay: microbe, parasite or virus in culture; type: cell-based, E. coli
[3] = system: Ec12 (CTX-M-15, ciprofloxacin resistant); assay: microbe, parasite or virus in culture; type: cell-based, E. coli
[4] = system: Ec19 (CTX-M-15, ciprofloxacin resistant); assay: microbe, parasite or virus in culture; type: cell-based, E. coli
[5] = system: Ec17 (CTX-M-15, ciprofloxacin sensitive); assay: microbe, parasite or virus in culture; type: cell-based, E. coli
E. coli CFT073 pCTX-M-1 = assay: Bactericidal activity (survival by CFU counts), CFT073 pCTX-M-1; type: cell-based; settings: 78 nM
[6] = system: E. faecalis ATCC29212 and GW01; assay: Antibacterial activity against E. faecalis strains without β-lactamase; type: cell-based; settings: two strains that did not express β-lactamase
CFT073 E. coli cells WT = assay: MIC, E. coli CFT073 WT; type: cell-based; settings: Escherichia coli
[7] = system: CFT073 + pSU18 + CTX-M-1 (pCTX); assay: microbe, parasite or virus in culture; type: cell-based, E. coli
[8] = system: Ec16 (CTX-M-15, ciprofloxacin sensitive); type: cell-based, E. coli; settings: strain EC16, ciprofloxacin sensitive
CFT073 pKPC (KPC-3) = assay: microbe, parasite or virus in culture; type: cell-based, E. coli; settings: Escherichia coli, read-out: MIC value pKPC

T1 sequence (P0AES4 whole entry, one chain of several): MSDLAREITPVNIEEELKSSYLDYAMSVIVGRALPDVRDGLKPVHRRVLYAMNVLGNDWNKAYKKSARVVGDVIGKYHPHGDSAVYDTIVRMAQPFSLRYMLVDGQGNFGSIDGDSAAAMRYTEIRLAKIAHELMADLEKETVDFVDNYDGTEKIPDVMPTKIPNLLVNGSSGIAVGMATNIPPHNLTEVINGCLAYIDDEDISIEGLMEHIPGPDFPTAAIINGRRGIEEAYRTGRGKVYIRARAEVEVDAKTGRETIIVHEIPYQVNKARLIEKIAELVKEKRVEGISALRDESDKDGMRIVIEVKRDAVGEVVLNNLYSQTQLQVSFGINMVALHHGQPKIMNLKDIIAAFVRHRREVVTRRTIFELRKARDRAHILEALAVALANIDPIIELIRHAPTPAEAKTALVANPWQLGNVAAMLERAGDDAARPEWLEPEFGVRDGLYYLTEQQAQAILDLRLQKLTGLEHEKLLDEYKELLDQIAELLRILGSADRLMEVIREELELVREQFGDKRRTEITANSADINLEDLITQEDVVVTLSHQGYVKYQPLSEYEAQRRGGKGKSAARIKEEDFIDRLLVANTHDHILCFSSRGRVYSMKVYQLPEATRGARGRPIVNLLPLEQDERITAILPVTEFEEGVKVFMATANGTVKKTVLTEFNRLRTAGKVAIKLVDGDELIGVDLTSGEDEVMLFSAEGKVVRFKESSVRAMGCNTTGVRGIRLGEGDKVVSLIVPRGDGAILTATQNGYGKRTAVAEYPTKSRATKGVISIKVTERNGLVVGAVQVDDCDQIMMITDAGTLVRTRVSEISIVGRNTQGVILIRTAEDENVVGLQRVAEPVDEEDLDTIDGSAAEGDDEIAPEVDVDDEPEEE

## CC(=O)N[C@@H]1C(=O)N2C(C(=O)O)=C(COC(=O)c3cn(C4CC4)c4cc(N5CCNCC5)c(F)cc4c3=O)CS[C@H]12 [compound 35, (6R,7R)-7-Acetamido-3-(((1-cyclopropyl-6-fluoro-4-oxo-7-(piperazin-1-yl)-1,4-dihydroquinoline-3-carbonyl)oxy)methyl)-8-oxo-5-thia-1-azabicyclo[4.2.0]oct-2-ene-2-carboxylic Acid]
E. coli CFT073 pEMP
  growth of CFT073 expressing empty plasmid: growth comparable to no treatment controls
CFT073 pNDM (NDM-1)
  MIC: 0.04 µg/mL and 0.063 µM
CFT073 + pSU18 (pEMP); CFT073 WT and pEMP, absence of β-lactamase
  decrease in activity (MIC) compared to ciprofloxacin 31: 10 fold
CFT073 + pSU18 (pEMP); CFT073 pEMP, 10 % normal human serum
  MIC assay in the presence of human serum: equivalent to those obtained in the absence of serum
CFT073 + pSU18 (pEMP); Escherichia coli, read-out: MIC value pEMP, CFT073 empty plasmid
  MIC: 0.312 µM (≈ 0.183 µg/mL)
[1]; Escherichia coli, read-out: MIC value Ec13
  MIC: > 5 µM
[1]; strain EC13, ciprofloxacin resistant
  arrest in bacterial growth (in words): no arrest in bacterial growth
Recombinant DNA gyrase; absence of CTX-M-15
  inhibition of DNA gyrase: not observed
Recombinant DNA gyrase; presence of CTX-M-15, 1 μM compound
  reduction of DNA gyrase activity: > 50%
[2]; Escherichia coli, read-out: MIC value Ec11
  MIC: 0.63 µM (≈ 0.369 µg/mL)
[2]; strain EC11, ciprofloxacin sensitive
  antibacterial activity (in words): confirmed
[3]; Escherichia coli, read-out: MIC value Ec12
  MIC: > 5 µM
[3]; strain EC12, ciprofloxacin resistant
  arrest in bacterial growth (in words): no arrest in bacterial growth
[4]; Escherichia coli, read-out: MIC value Ec19
  MIC: > 5 µM
[4]; strain EC19, ciprofloxacin resistant
  arrest in bacterial growth (in words): no arrest in bacterial growth
[5]; Escherichia coli, read-out: MIC value Ec17
  MIC: 2.5 µM (≈ 1.46 µg/mL)
[5]; strain EC17, ciprofloxacin sensitive
  antibacterial activity (in words): confirmed
E. coli CFT073 pCTX-M-1; CFU counts over time
  killing activity in E. coli expressing CTX-M-1: almost identical to free ciprofloxacin
E. coli CFT073 pCTX-M-1; 6 h incubation, CFU counts
  greater killing of E. coli expressing CTX-M-1 compared with bacteria not expressing the enzyme: > 100 fold
[6]
  activity against E. faecalis compared to ciprofloxacin: reduced activity compared to ciprofloxacin
CFT073 E. coli cells WT; read-out: MIC value WT, CFT073 WT
  MIC: 0.312 µM (≈ 0.183 µg/mL)
CFT073 E. coli cells WT; CFT073 WT, read-out: MIC value WT
  MIC: 0.18 µg/mL and 0.31 µM
[7]; CFT073 pCTX-M-1, 10 % normal human serum
  MIC assay in the presence of human serum: equivalent to those obtained in the absence of serum
[7]; CFT073 strains expressing CTX-M-1, NDM1 or KPC
  MIC higher than ciprofloxacin 31: 2 fold
[7]; Escherichia coli, read-out: MIC value pCTX, CFT073 pCTX
  MIC: 0.04 µg/mL and 0.063 µM
[8]
  antibacterial activity (in words): confirmed
CFT073 pKPC (KPC-3)
  MIC: 0.04 µg/mL and 0.063 µM

— paper PMC6511942, “Exploitation of Antibiotic Resistance as a Novel Drug Target: Development of a β-Lactamase-Activated Antibacterial Prodrug” (Journal of Medicinal Chemistry, 2019)
